This is an account of results in patent US20140309275A1, “Sphingosine Analogs, Compositions, and Methods Related Thereto” (Emory University, priority 2011, published 2014).

Read-outs that look alike come from different tables or passages of the source.

As usually defined, the melting point is the temperature of the solid-liquid transition.

A short description of data set [1]: Mouse tumor concentrations (human prostate cancer xenograft). In kind it is in vivo, Nude mice. Further details: unit not given here. Particulars: tumors harvested, LC/MS/MS. The source says: Nude mice were subjected to human prostate cancer xenograft procedures, and resulting tumors were allowed to grow for 16 days. […] Once the scheduled time course had passed, the mice were sacrificed. Tumors were harvested, homogenized, and analyzed by LC/MS/MS for tumor-drug concentration.
A general note: Xenograft models place foreign cells or tissue in a host animal.

Data set [2] concerns P. falciparum chloroquine resistant (CQ-R) W2 strain. Briefly: [3H]-labeled hypoxanthine uptake assay, P. falciparum W2. In kind it is cell-based. Particulars: Plasmodium falciparum. An excerpt:
(§1) The [^3H]-labeled hypoxanthine uptake method was utilized to assay the effectiveness of our sphingoid base analogs in vitro for their ability to inhibit the growth and replication of malaria parasites in RBCs. […] The simian malaria parasite P. knowlesi has also been recognized as a human pathogen of public health concern in South East Asia, and it can be cultured effectively in vitro. This species was therefore included to probe the potential of multi-species efficacy within this compound class.
(§2) Cryopreserved iRBCs were provided by Dr. John W. Barnwell from the Centers for Disease Control and Prevention and maintained in in vitro culture as described in Trager & Jensen, Science 1976, 193 (4254), 673-5.
(§3) Compounds in Table 1 were dissolved in 70% 200-proof pharmaceutical grade ethanol, and a working solution of 0.2 mg/mL was prepared using hypoxanthine- and gentamicin-free incomplete RPMI 1640 (Gibco). Compounds in Table 2 were dissolved in 200 proof pharmaceutical grade ethanol at a concentration of 50 μM and then conjugated to BSA (Sigma) as described.^5 A working solution of 0.2 mg/mL was prepared using hypoxanthine- and gentamicin-free incomplete RPMI 1640 (Gibco). Two compounds were tested per plate in triplicate starting at 0.2 mg/mL and diluted two-fold down to 0.019 μg/mL using hypoxanthine- and gentamicin-free RPMI.
(§4) Parasite inoculum was prepared by mixing parasitized blood, uninfected 0+RBCs (for P. falciparum strains) or rhesus RBCs (for P. knowlesi) and culture medium (deficient in hypoxanthine and gentamicin) to a final concentration of 1% parasitemia and 1% haematocrit. A negative control was prepared by diluting uninfected erythrocytes to 1% haematocrit in culture medium. [^3H]-labeled hypoxanthine was added at 24 h (for P. falciparum strains) or 12 h (P. knowlesi) and the culture was collected 48 h or 12 h later for P. falciparum or P. knowlesi, respectively. [^3H] uptake was measured by using a scintillation spectrophotometer (Wallac Oy 1450 MicroBeta reader).
(§5) Triplicate wells were used to calculate the IC50 for each compound using the software XLFit v5.2 using the sigmoidal model 601. Average and standard deviations were calculated using Microsoft Excel.

Data set [3] concerns PC-3 prostate cancer cells. The experiment in a line: WST-1 cytotoxicity assay, PC-3. It counts as cell-based. Particulars: 24 h treatment. The procedure: (§6) Prostate cancer cells were treated with enigmol or analogue for 24 h, and cytotoxicity was assessed by WST-1 assay. cLogPs were calculated with QuikProp on Maestro.
(In general: Tetrazolium dyes change colour on reduction, which living cells bring about.)

For data set [4], the system named is P. falciparum chloroquine susceptible (CQ-S) D6 strain. Briefly: [3H]-labeled hypoxanthine uptake assay, P. falciparum D6. It counts as cell-based. The conditions noted are these: Plasmodium falciparum, read-out: IC50 D6.
Source text: as §1, §2, §3, §4, §5

A further data set relates to P. knowlesi H strain. Briefly: [3H]-labeled hypoxanthine uptake assay, P. knowlesi. It counts as cell-based. The conditions noted are these: Plasmodium knowlesi; Table 1; compounds dissolved in 70% ethanol, not BSA-conjugated.
Source text: The [^3H]-labeled hypoxanthine uptake method was utilized to assay the effectiveness of our sphingoid base analogs in vitro for their ability to inhibit the growth and replication of malaria parasites in RBCs. […] The simian malaria parasite P. knowlesi has also been recognized as a human pathogen of public health concern in South East Asia, and it can be cultured effectively in vitro. This species was therefore included to probe the potential of multi-species efficacy within this compound class. The data were generated with the known antimalarial drugs chloroquine and mefloquine as controls.
The H strain of P. knowlesi has been adapted to in vitro culture using Macaca mulatta (rhesus monkey) RBCs essentially as described in Kocken et al., Infect Immun 2002, 70 (2), 655-60 (the media was supplemented with 10% human AB serum).
Chloroquine (Sigma) and mefloquine (Sigma) were used as controls. Compounds in Table 1 were dissolved in 70% 200-proof pharmaceutical grade ethanol, and a working solution of 0.2 mg/mL was prepared using hypoxanthine- and gentamicin-free incomplete RPMI 1640 (Gibco). Compounds in Table 2 were dissolved in 200 proof pharmaceutical grade ethanol at a concentration of 50 μM and then conjugated to BSA (Sigma) as described.^5 A working solution of 0.2 mg/mL was prepared using hypoxanthine- and gentamicin-free incomplete RPMI 1640 (Gibco). Two compounds were tested per plate in triplicate starting at 0.2 mg/mL and diluted two-fold down to 0.019 μg/mL using hypoxanthine- and gentamicin-free RPMI.
as §4, §5

The subject of data set [5] is LNCaP prostate cancer cells. Briefly: WST-1 cytotoxicity assay, LNCaP. It counts as cell-based. Particulars: Homo sapiens, 24 h treatment. The procedure: as §6
A short description of data set [6]: Mouse PK studies (plasma and RBC levels). It counts as in vivo. Particulars: mice; for PK dose proportionality / plasma half-lives: p.o. 10 or 30 mg/kg single dose. The procedure: Enigmol (E) or N-Methyl-enigmol (NME) were dissolved as 10× stocks in ethanol, then diluted 1:10 in olive oil the day before dosing; dosing solutions were stored at room temperature overnight. Male mice, CD-1 or Swiss Webster (20 to 30 g), were dosed p.o. at either 10 or 30 mg/kg and 5 ml/kg (n=3/time point). For single dose studies with E and NME, bloods were sampled at 0.5, 1, 2, 4, 6, 8, 16 & 24 hrs. For the 5 day repeat dose study with E, samples were taken on day 5 at 0 (trough) 0.5, 1, 2, 4, 6, 8 & 24 hrs. Blood (˜0.3 ml) was obtained either from the submandibular vein using a 4 mm Small Animal Lancet (MEDIpoint), or by retro-orbital bleeding into 200 uL glass micropipettes (Drummond) under isoflurane anesthesia. Each mouse was sampled once and blood transferred immediately to 0.5 ml K EDTA or Li heparin microtainers (BD) in ice water. Tubes were centrifuged at 2000×g for 10 min in a refrigerated centrifuge to separate plasma from RBCs. The plasma supernatants and RBC pellets (when taken) were transferred into separate 1.5 mL Eppendorf tubes in ice water, then frozen on dry ice and stored at −80° C. prior to analysis by LC/MS/MS. Mouse plasma determinations of Enigmol and N-methylenigmol were done using a bioanalytical assay method consisting of a protein precipitation sample preparation step followed by analysis on an AB SCIEX QTRAP® 5500 LC/MS/MS System. The method employed an internal standard (ISTD) spiking technique with D17:0 sphinganine as the ISTD. The lower limit of quantitation (LLOQ) for the assay method was 10 ng/mL and the upper limit of quantitation (ULOQ) for the assay method was 1,000 ng/mL for both Enigmol and N-methylenigmol. Each bioanalytical run consisted of eight matrixes (mouse plasma) spiked calibration standards and six matrixes spiked quality control (QC) samples at three levels (30 ng/mL, 500 ng/mL, and 900 ng/mL) in duplicate along with unknown mouse study samples. […] Estimates of pharmacokinetic parameters from the single dose (10 mg/kg and 30 mg/kg PO) mouse studies were determined using WinNonlin® (Pharsight, Version 5.3).

The subject of data set [7] is P. falciparum W2 strain parasites. The experiment in a line: Morphological changes and parasitemia upon incubation, Giemsa-stained thin blood smears. In kind it is cell-based. The procedure:
Upon preliminary examination, morphological changes were detected in the P. falciparum W2 strain parasites after incubation of the cultures with N-Methylenigmol (ESPD-507). The effect was evident between 28 h and 48 h of incubation, with a quantitatively high percentage of various aberrant or stunted forms of ring-stage and trophozoite-stage parasites found on Giemsa-stained thin blood smears (see black arrows in FIG. 2 at 28 h highlighting the presence of abundant ring-stage parasites and at 48 h, noting a vacuolated appearance of trophozoite-stage parasites). These findings can be contrasted with the normal growth, development, and maturation of the parasites without the drug.
By the 48 hour time point, the parasitemia increased from 1% to 5.8+/−0.5% with healthy appearing parasites in the control samples, as expected, while it remained at 1.3+/−0.3% and with aberrant parasite forms in the sample incubated with N-Methylenigmol (Table 2). The relative percentages of rings, trophozoites and schizonts in the cultures with and without the ESPD 507 compound were 41.9%, 39.2% and 18.9% versus 87.9%, 4.2% and 8.05, respectively.
Samples were removed every 4 h and thin blood smears were prepared, stained with modified Giemsa stain, and analyzed by light microscopy for morphological changes in growth and development. The modular incubator used was gassed and returned to 37° C. in less than 5 minutes to avoid delay in parasite growth.

For another data set, the system named is sphingomyelin synthase. Particulars: background section; read-out: IC50 sphingomyelin synthase activity in RBCs; cited from earlier work.
Setting [8] is: W2, Table 1, compounds dissolved in 70% ethanol, not BSA-conjugated, read-out: IC50 W2.
Where [9] appears, read: W2, Table 2, compounds conjugated to BSA, read-out: IC50 W2.
Where [10] appears, read: D6, Table 1, compounds dissolved in 70% ethanol, not BSA-conjugated.
The mark [11] stands for this setting: D6, Table 2, compounds conjugated to BSA.

On to `C[C@H](N)[C@@H](O)C[C@@H](O)CCCCCCCCCCCCC(F)(F)F` [CF3-Enigmol, (2S,3S,5S)-2-amino-18,18,18-trifluorooctadecane-3,5-diol], for which the tumor-drug concentration in data set [1] (3 mg/kg p.o. once daily) is recorded as 1147; in [1] (10 mg/kg p.o. once daily), 9004.
As to `CCCCCCCCCCCCC[C@H](O)C[C@H](O)[C@H](C)N` [ESPD-0500, (2S,3S,5S)-2-aminooctadecane-3,5-diol], the IC50 was 7.37 ± 1.5 µM in data set [2] (setting [8]); 9.2 ± 2 µM in [2] (setting [9]); 7 to 12 µM in data set [2] (W2, text b101, summary over W2 and D6 strains, read-out: IC50 / anti-malarial activity on both W2 and D6 strains); 10 µM in data set [3]; 12.6 ± 2.4 µM in data set [4] (setting [10]); 5.3 ± 1 µM in data set [4] (setting [11]). For the same molecule, the figures for the IC50 (in the data set on P. knowlesi H strain; in data set [5]) were 10.5 ± 0.38 µM and 13 µM, respectively. The tumor-drug concentration in [1] (3 mg/kg p.o. once daily) is recorded as 317; in [1] (10 mg/kg p.o. once daily), 1565. Further, in data set [6] (male, mouse, red blood cells (RBC) relative to plasma, po, 30 mg/kg, 30 mg/kg orally once per day, after 5th day of dosing, read-out: drug concentrations in RBCs relative to plasma levels), the Kp at 5 day was about 3. Moreover, the volumes of distribution entry in data set [6] was “large”. Further, the “plasma levels increase from accumulation” value in data set [6] (30 mg/kg orally once per day, after 5th day of dosing) is “about 30%”. Also, the PK dose proportionality entry in data set [6] is “dose proportional”. The plasma half-lives entry in data set [6] was “long”.
For `CCCCCCCCCCCCC[C@H](O)C[C@H](O)[C@H](C)NC` [ESPD-0507, N-Methylenigmol], the IC50 stood at 1.58 ± 0.13 µM in data set [2] (setting [8]); 0.9 ± 0.35 µM in data set [2] (setting [9]); 1.73 µM in data set [2] (W2, text b183, 546.94 ng/mL used for the morphology study, W2, read-out: IC50); 4.7 ± 0.1 µM in data set [4] (setting [10]); 1.7 ± 1 µM in data set [4] (setting [11]); 1.72 ± 0.01 µM in the data set on P. knowlesi H strain. Besides, the parasitemia in [7] (48 hour time point, start 1%, compound at 546.94 ng/mL) was 1.3+/−0.3%. Moreover, in data set [7] (culture with compound, 48 h), the “relative percentage of rings” value stood at 41.9%. Besides, in data set [7] (culture with compound, 48 h), the “relative percentage of schizonts” value stood at 18.9%. For the same molecule, the “relative percentage of trophozoites” value in data set [7] (culture with compound, 48 h) amounted to 39.2%. Besides, the volumes of distribution entry in data set [6] is given as “large”. For the same molecule, the PK dose proportionality result in data set [6] is “dose proportional”. Further, the plasma half-lives entry in [6] is given as “long”.
Molecule `CCCCCCCCCCCCC[C@H](O)CC(=O)C(C)(C)N` [ESPD-0562, (S)-2-amino-5-hydroxy-2-methyloctadecan-3-one] returned a melting point of 31 to 33 °C. For the same molecule, the IC50 in data set [2] (setting [9]) amounted to 2.6 ± 1.5 µM. The IC50 in data set [4] (setting [11]) worked out at 2.5 ± 0.1 µM.
On to `CCCCCCCCCCCCCCCC(=O)NC(CN1CCOCC1)C(O)c1ccccc1` (stereo not drawn) [threo-PPMP, phenyl-2-palmitoylamino-3-morpholino-1-propanol], for which the IC50 with sphingomyelin synthase is 0.85 µM.
